Measurements as given in the kinase profiling compilation of Christmann-Franck et al. (2016).

Experiments:
Experiment in all cases: TR FRET
Settings in all cases: compound 0.01 µM
[1] = tested on: FLT3 (human), P36888 [K663Q]
EPHA8 (human) = EPHA8 (human) (UniProt P29322)
TAOK3 (human) = TAOK3 (human) (UniProt Q9H2K8)
SGK3 (human) = SGK3 (human) (UniProt Q96BR1)
MAP4K1 (human) = MAP4K1 (human) (UniProt Q92918)
KIT (human) = KIT (human) (UniProt P10721)
NTRK1 (human) = NTRK1 (human) (UniProt P04629)
CSK (human) = CSK (human) (UniProt P41240)
HCK (human) = HCK (human) (UniProt P08631)
STK10 (human) = STK10 (human) (UniProt O94804)
[2] = tested on: KIT (human), P10721 [V559D]
TNK1 (human) = TNK1 (human) (UniProt Q13470)
[3] = tested on: FLT3 (human), P36888 [R834Q]
[4] = tested on: FLT3 (human), P36888 [D835H]
BMX (human) = BMX (human) (UniProt P51813)
FLT3 (human) = FLT3 (human) (UniProt P36888)
MAP2K5 (human) = MAP2K5 (human) (UniProt Q13163)
YES1 (human) = YES1 (human) (UniProt P07947)
[5] = tested on: RET (human), P07949 [V804M]
[6] = molecular target: JAK3 JH1 catalytic (human) (UniProt P52333)
ULK1 (human) = ULK1 (human) (UniProt O75385)
DDR2 (human) = DDR2 (human) (UniProt Q16832)
[7] = tested on: FLT3 (human), P36888 [N841I]
[8] = tested on: FLT3 (human), P36888 [D835Y]
NTRK2 (human) = NTRK2 (human) (UniProt Q16620)
LCK (human) = LCK (human) (UniProt P06239)
MAP3K2 (human) = MAP3K2 (human) (UniProt Q9Y2U5)
ANKK1 (human) = ANKK1 (human) (UniProt Q8NFD2)
MAP3K7 (human) = MAP3K7 (human) (UniProt O43318)
TIE1 (human) = TIE1 (human) (UniProt P35590)
MAP4K2 (human) = MAP4K2 (human) (UniProt Q12851)
MUSK (human) = MUSK (human) (UniProt O15146)
[9] = tested on: BRAF (human), P15056 [V600E]
MLTK (human) = MLTK (human) (UniProt Q9NYL2)
BLK (human) = BLK (human) (UniProt P51451)
LYN (human) = LYN (human) (UniProt P07948)
DDR1 (human) = DDR1 (human) (UniProt Q08345)
CPK1 (P.falciparum) = tested on: CPK1 (P.falciparum)
[10] = tested on: KIT (human), P10721 [L576P]
FGFR1 (human) = FGFR1 (human) (UniProt P11362)
PDGFRA (human) = PDGFRA (human) (UniProt P16234)
[11] = tested on: RET (human), P07949 [M918T]
PDGFRB (human) = PDGFRB (human) (UniProt P09619)
IKBKB (human) = IKBKB (human) (UniProt O14920)
BRAF (human) = BRAF (human) (UniProt P15056)
SRC (human) = SRC (human) (UniProt P12931)
[12] = tested on: EIF2AK4 KD2 (human), Q9P2K8 [S808G]
EPHA3 (human) = EPHA3 (human) (UniProt P29320)
MAPK14 (human) = MAPK14 (human) (UniProt Q16539)
CSF1R (human) = CSF1R (human) (UniProt P07333)
TNIK (human) = TNIK (human) (UniProt Q9UKE5)
[13] = tested on: KIT (human), P10721 [V559D/T670I]
FGR (human) = FGR (human) (UniProt P09769)
EPHA4 (human) = EPHA4 (human) (UniProt P54764)
RET (human) = RET (human) (UniProt P07949)
NTRK3 (human) = NTRK3 (human) (UniProt Q16288)
TEK (human) = TEK (human) (UniProt Q02763)
MAP3K3 (human) = MAP3K3 (human) (UniProt Q99759)
CHUK (human) = CHUK (human) (UniProt O15111)

BMX (human), sequence (P51813 whole entry, looked up): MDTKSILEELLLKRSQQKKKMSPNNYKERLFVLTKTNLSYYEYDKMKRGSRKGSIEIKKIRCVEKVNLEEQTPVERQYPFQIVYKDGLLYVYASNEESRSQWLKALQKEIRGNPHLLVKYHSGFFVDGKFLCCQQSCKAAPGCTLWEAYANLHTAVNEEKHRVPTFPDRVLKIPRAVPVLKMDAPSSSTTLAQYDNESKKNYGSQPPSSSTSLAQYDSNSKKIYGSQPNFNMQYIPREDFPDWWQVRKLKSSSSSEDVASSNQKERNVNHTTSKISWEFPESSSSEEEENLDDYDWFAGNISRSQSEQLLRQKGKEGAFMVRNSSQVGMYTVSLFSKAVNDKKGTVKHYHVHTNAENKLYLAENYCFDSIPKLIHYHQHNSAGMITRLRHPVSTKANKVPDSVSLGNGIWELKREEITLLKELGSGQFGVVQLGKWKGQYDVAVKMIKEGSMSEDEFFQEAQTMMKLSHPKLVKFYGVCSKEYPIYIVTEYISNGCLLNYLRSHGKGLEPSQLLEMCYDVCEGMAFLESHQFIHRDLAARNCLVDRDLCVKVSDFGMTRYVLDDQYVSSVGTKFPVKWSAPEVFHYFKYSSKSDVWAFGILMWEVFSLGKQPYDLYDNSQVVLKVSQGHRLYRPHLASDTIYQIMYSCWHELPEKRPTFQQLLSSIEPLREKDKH
EIF2AK4 KD2 (human), Q9P2K8 [S808G], sequence (Q9P2K8 whole entry S808G, looked up): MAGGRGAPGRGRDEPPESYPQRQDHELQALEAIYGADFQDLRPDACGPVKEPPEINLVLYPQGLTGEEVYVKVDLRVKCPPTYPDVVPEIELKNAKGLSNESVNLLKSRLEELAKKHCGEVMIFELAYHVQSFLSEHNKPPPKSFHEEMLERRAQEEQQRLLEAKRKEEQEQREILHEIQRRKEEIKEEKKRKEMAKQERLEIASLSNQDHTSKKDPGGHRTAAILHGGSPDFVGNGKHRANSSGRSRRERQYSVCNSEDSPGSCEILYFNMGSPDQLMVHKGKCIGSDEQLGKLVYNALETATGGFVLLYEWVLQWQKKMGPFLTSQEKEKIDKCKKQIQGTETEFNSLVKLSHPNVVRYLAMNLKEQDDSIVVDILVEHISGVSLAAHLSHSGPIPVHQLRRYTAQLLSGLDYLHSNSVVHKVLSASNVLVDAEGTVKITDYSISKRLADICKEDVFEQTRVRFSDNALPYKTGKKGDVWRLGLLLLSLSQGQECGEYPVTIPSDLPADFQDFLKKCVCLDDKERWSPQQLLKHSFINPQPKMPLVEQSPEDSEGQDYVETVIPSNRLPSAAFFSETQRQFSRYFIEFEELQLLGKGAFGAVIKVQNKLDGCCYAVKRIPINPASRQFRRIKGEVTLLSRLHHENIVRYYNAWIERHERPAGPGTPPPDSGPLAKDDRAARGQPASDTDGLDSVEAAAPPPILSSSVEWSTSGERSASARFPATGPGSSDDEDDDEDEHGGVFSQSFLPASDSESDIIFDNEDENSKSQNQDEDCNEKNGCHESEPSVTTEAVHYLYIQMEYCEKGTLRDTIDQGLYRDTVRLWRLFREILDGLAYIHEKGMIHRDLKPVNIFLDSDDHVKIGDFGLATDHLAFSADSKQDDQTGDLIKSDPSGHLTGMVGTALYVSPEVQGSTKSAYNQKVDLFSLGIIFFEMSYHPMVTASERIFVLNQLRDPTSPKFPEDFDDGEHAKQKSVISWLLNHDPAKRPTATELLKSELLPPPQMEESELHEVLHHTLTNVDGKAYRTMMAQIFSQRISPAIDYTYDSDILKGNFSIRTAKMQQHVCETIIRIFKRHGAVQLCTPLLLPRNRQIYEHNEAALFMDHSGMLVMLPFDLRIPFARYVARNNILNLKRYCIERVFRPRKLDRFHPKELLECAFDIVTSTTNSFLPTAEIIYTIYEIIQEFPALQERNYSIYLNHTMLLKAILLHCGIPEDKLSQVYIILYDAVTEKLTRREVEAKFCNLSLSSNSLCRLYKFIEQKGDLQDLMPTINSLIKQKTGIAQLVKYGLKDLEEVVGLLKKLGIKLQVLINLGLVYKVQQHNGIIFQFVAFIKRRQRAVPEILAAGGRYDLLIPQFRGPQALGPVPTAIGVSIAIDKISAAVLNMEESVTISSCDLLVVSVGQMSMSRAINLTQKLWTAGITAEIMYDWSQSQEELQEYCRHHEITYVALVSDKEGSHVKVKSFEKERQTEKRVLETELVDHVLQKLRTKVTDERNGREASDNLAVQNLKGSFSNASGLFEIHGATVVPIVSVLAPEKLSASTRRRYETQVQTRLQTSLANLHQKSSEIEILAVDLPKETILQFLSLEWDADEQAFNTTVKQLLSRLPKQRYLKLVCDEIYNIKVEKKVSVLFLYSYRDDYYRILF
DDR2 (human), sequence (Q16832 whole entry, looked up): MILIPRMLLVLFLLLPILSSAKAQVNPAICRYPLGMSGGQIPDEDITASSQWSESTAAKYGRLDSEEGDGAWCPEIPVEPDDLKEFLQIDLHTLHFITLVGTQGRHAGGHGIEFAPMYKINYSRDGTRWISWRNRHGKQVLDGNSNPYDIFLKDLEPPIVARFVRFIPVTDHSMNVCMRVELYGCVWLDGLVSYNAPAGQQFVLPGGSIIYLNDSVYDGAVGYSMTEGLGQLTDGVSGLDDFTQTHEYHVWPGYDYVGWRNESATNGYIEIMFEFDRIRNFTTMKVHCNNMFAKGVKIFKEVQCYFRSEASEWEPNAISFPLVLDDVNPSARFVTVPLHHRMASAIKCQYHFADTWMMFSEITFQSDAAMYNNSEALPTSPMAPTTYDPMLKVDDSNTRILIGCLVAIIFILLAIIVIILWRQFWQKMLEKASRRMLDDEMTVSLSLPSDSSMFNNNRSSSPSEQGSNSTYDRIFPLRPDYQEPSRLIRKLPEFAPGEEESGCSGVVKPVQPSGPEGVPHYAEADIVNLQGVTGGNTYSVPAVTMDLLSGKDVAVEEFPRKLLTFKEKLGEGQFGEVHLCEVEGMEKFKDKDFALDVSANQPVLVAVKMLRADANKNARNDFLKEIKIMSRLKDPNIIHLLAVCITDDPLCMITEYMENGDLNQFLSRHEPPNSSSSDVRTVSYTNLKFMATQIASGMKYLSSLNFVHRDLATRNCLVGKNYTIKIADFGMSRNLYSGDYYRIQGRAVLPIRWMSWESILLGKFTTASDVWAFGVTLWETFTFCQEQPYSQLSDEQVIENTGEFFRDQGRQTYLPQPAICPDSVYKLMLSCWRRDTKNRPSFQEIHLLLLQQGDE
NTRK1 (human), sequence (P04629 whole entry, looked up): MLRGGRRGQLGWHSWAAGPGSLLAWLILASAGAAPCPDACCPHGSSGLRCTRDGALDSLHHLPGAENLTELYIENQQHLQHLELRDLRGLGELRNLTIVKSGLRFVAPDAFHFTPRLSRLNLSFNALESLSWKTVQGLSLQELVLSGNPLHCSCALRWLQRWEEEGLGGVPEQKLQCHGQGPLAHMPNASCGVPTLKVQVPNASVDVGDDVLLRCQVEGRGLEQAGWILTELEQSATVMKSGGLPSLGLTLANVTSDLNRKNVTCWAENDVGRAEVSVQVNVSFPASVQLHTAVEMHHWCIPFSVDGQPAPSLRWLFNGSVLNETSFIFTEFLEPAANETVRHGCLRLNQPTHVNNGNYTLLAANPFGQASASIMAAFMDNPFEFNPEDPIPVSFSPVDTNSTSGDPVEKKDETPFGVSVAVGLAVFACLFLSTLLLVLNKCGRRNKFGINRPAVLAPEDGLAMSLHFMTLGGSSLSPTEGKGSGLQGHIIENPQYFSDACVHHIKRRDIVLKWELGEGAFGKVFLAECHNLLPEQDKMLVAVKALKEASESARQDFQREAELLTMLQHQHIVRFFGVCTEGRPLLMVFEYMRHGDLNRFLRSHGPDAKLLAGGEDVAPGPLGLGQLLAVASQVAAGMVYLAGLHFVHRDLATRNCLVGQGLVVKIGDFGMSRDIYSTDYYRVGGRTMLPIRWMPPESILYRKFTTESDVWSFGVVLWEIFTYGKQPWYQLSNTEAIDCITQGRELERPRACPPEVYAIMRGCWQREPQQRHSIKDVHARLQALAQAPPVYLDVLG
EPHA8 (human), sequence (P29322 whole entry, looked up): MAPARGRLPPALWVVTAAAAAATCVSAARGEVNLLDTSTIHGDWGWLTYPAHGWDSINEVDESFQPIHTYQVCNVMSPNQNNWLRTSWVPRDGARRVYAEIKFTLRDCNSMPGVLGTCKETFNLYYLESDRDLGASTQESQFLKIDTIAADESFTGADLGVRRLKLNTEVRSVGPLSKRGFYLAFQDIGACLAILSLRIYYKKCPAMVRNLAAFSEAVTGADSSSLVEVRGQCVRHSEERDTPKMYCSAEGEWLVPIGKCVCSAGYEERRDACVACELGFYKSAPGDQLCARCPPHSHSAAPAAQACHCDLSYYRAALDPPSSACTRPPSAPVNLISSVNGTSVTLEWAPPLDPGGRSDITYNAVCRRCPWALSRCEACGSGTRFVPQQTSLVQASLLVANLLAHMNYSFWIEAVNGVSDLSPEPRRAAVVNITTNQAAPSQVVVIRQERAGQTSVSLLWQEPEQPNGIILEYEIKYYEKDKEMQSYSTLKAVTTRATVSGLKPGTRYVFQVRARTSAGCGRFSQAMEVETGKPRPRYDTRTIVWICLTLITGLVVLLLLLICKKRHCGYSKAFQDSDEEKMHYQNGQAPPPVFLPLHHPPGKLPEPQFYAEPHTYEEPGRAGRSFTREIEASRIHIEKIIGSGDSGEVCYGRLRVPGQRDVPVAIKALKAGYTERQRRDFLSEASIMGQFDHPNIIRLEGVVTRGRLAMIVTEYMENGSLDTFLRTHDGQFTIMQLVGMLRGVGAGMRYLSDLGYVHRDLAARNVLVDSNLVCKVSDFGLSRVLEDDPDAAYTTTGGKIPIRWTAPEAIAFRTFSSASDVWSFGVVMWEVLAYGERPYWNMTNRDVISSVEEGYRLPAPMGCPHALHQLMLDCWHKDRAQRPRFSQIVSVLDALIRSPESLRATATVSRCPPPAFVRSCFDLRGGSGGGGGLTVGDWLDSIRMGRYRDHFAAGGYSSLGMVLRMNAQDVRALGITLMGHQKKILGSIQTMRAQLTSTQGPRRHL

`Cc1ccc(C(=O)Nc2ccc(CN3CCN(C)CC3)c(C(F)(F)F)c2)cc1C#Cc1cnc2[nH]ncc2c1` showed an inhibition [1] of 95%, an inhibition (EPHA8 (human)) of 89% and an inhibition (TAOK3 (human)) of 92.1%. It also gave an inhibition (SGK3 (human)) of 52%, an inhibition (MAP4K1 (human)) of 59% and an inhibition (KIT (human)) of 97.2%. The inhibition (NTRK1 (human)) was 100%, the inhibition (CSK (human)) was 97.8% and the inhibition (HCK (human)) was 95.8%. It also gave an inhibition (STK10 (human)) of 99.8%, an inhibition [2] of 98.6% and an inhibition (TNK1 (human)) of 83%. It also gave an inhibition [3] of 77%, an inhibition [4] of 82% and an inhibition (BMX (human)) of 51%. It also gave an inhibition (FLT3 (human)) of 97.6%, an inhibition (MAP2K5 (human)) of 94.8% and an inhibition (YES1 (human)) of 70%. For the same compound, the inhibition [5] was 65%, the inhibition [6] was 67% and the inhibition (ULK1 (human)) was 51%. It also gave an inhibition (DDR2 (human)) of 64%, an inhibition [7] of 97.1% and an inhibition [8] of 58%. The inhibition (NTRK2 (human)) was 86%, the inhibition (LCK (human)) was 96.8% and the inhibition (MAP3K2 (human)) was 63%. For the same compound, the inhibition (ANKK1 (human)) was 55%, the inhibition (MAP3K7 (human)) was 96.2% and the inhibition (TIE1 (human)) was 82%. For the same compound, the inhibition (MAP4K2 (human)) was 86%, the inhibition (MUSK (human)) was 78% and the inhibition [9] was 93.6%. The inhibition (MLTK (human)) was 96.2%, the inhibition (BLK (human)) was 97.6% and the inhibition (LYN (human)) was 83%. It also gave an inhibition (DDR1 (human)) of 99.8%, an inhibition (CPK1 (P.falciparum)) of 79% and an inhibition [10] of 97.8%. The inhibition (FGFR1 (human)) was 84%, the inhibition (PDGFRA (human)) was 76% and the inhibition [11] was 90.6%. For the same compound, the inhibition (PDGFRB (human)) was 90.5%, the inhibition (IKBKB (human)) was 90% and the inhibition (BRAF (human)) was 78%. For the same compound, the inhibition (SRC (human)) was 76%, the inhibition [12] was 54% and the inhibition (EPHA3 (human)) was 89%. The inhibition (MAPK14 (human)) was 59%, the inhibition (CSF1R (human)) was 97.8% and the inhibition (TNIK (human)) was 81%. For the same compound, the inhibition [13] was 91.9%, the inhibition (FGR (human)) was 81% and the inhibition (EPHA4 (human)) was 52%. It also gave an inhibition (RET (human)) of 85%, an inhibition (NTRK3 (human)) of 82% and an inhibition (TEK (human)) of 97.2%. It also gave an inhibition (MAP3K3 (human)) of 90% and an inhibition (CHUK (human)) of 86%.
